We go through 41 compounds from patent publication US10774064B2 (Cadent Therapeutics, Inc., priority 2016, dated 2020).

The target in the assay is T1, small-conductance Ca2+-activated K+ channels (SK channels, subtype 2) (Homo sapiens, UniProt Q9H2S1).
T1 construct: expressed in transfected cells; host or cells: HEK293
Description: whole-cell patch-clamp of ionic current through SK2 channels in HEK293 cells (SC100). The assay is classed as cell-based. Particulars: whole-cell patch-clamp, HEK293 cells expressing SK2 channels; concentration that increases the basal current by 100%. An outline of the steps: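 SC100, the concentration doubling basal current (a 100% increase), was taken from SK2 currents recorded by whole-cell patch-clamp in SK2-expressing HEK293 cells.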
For orientation: Patch clamp records ionic current or voltage across a cell membrane.

Regarding `COc1cc(NC2CC(F)(F)C2)nc(-c2nc(C)cs2)n1` [IN11133-014-P1], the “SC100 (μM)” value is “+ (+ means >1 uM)”.
Consider `Cc1csc(-c2nc(NC3CC(F)(F)C3)cc(OC3CCOCC3)n2)n1` [IN11133-020-P1, N-(3,3-difluorocyclobutyl)-2-(4-methylthiazol-2-yl)-6-((tetrahydro-2H-pyran-4-yl)oxy) pyrimidin-4-amine], for which the “SC100 (μM)” value was “+ (+ means >1 uM)”.
On to `Cc1ccn(-c2nc(N[C@@H]3CCCC[C@H]3F)cc(N3CCOCC3)n2)n1` [IN11133-031-P1], for which the “SC100 (μM)” value is given as “+ (+ means >1 uM)”.
In the case of `Cc1csc(-c2cc(CNC=O)cc(NC3CCC(F)(F)CC3)n2)n1` [IN11133-037-P1], the “SC100 (μM)” value was “+++ (+++ means <200 nM)”.
On to `Cc1csc(-c2cc(CN)cc(NC3CCC(F)(F)CC3)n2)n1` [IN11133-049-P1, 4-(aminomethyl)-N-(4,4-difluorocyclohexyl)-6-(4-methylthiazol-2-yl)pyridin-2-amine], for which the “SC100 (μM)” value was “++ (++ means 200 nM-1000 nM)”.
To `Cc1csc(-c2cc(COC(N)=O)cc(NC3CCC(F)(F)CC3)n2)n1` [IN11133-061-P1, (2-((4,4-difluorocyclohexyl)amino)-6-(4-methylthiazol-2-yl)pyridin-4-yl)methyl carbamate] belongs “+++ (+++ means <200 nM)”; to `CC(=O)N(C)Cc1cc(NC2CCC(F)(F)CC2)nc(-c2nc(C)cs2)c1` [IN11133-068-P1], “++ (++ means 200 nM-1000 nM)”; to `Cc1csc(-c2cc(CN(C)C=O)cc(NC3CCC(F)(F)CC3)n2)n1` [IN11133-069-P1], “+++ (+++ means <200 nM)”.
To `Cc1cc(NC2CCC(F)(F)CC2)nc(-n2ccc(OC(C)C)n2)n1` [IN11133-094-P1, N-(4,4-difluorocyclohexyl)-2-(3-isopropoxy-1H-pyrazol-1-yl)-6-methylpyrimidin-4-amine] belongs “+ (+ means >1 uM)”; to `OCc1cc(NC2CCC(F)(F)CC2)nc(-n2ccc(C(F)(F)F)n2)c1` [IN11133-097-P1, (2-((4,4-difluorocyclohexyl)amino)-6-(3-(trifluoromethyl)-1H-pyrazol-1-yl)pyridin-4-yl) methanol], “++ (++ means 200 nM-1000 nM)”; to `COc1cc(NC2CCCSC2)nc(-c2nc(C)cs2)n1` (centres unmarked) [IN11137-018-P1], “+ (+ means >1 uM)”.
As to `Cc1cc(NC2CCC(F)(F)CC2)nc(-c2cccc(C)n2)c1` [IN11137-041-P1, N-(4,4-difluorocyclohexyl)-4,6′-dimethyl-[2,2′-bipyridin]-6-amine], the “SC100 (μM)” value is “+ (+ means >1 uM)”.
Turning to `CCc1cc(NC2CCC(F)(F)CC2)nc(-n2ccc(C3CC3)n2)n1` [IN11137-072-P1, 2-(3-cyclopropyl-1H-pyrazol-1-yl)-N-(4,4-difluorocyclohexyl)-6-ethylpyrimidin-4-amine], the “SC100 (μM)” value is “++ (++ means 200 nM-1000 nM)”.
With `OCc1cc(NC2CCC(F)(F)CC2)nc(-n2ccc(C3CC3)n2)n1` [IN11137-074-P1, (2-(3-cyclopropyl-1H-pyrazol-1-yl)-6-((4,4-difluorocyclohexyl)amino)pyrimidin-4-yl) methanol], the “SC100 (μM)” value is recorded as “++ (++ means 200 nM-1000 nM)”.
In the case of `NC(=O)OCc1cc(N(C(N)=O)C2CCC(F)(F)CC2)nc(-n2ccc(C3CC3)n2)n1` [IN11137-079-P1, (2-(3-cyclopropyl-1H-pyrazol-1-yl)-6-(1-(4,4-difluorocyclohexyl)ureido)pyrimidin-4-yl)methyl carbamate], the “SC100 (μM)” value is “+ (+ means >1 uM)”.
Under `Cc1cc(NC2CCC(F)(F)CC2)nc(-n2[nH]c(=O)cc2N)n1` [IN11140-007-P1, 5-amino-1-(4-((4,4-difluorocyclohexyl)amino)-6-methylpyrimidin-2-yl)-1,2-dihydro-3H-pyrazol-3-one] stands “+ (+ means >1 uM)”; under `Cc1csc(-c2nc(N[C@@H]3CCCC[C@H]3O)cc(N3CCOCC3)n2)n1` [IN11140-058-P1], “+ (+ means >1 uM)”.
Consider `Cc1ccn(-c2nc(NC3CCCCC3(F)F)cc(N3CCOCC3)n2)n1` (centres unmarked) [IN11140-062-P1], for which the “SC100 (μM)” value is listed as “+ (+ means >1 uM)”.
As to `COc1cc(NC2CCCCC2(F)F)nc(-c2nc(C)cs2)n1` (centres unmarked) [IN11140-063-P1], the “SC100 (μM)” value is listed as “+ (+ means >1 uM)”.
For `Cc1csc(-c2nc(NC3CCCCC3=O)cc(N3CCOCC3)n2)n1` (centres unmarked) [IN11140-065-P1, 2-((2-(4-methylthiazol-2-yl)-6-morpholinopyrimidin-4-yl)amino)cyclohexan-1-one], the “SC100 (μM)” value is “+ (+ means >1 uM)”.
For `Cc1csc(-c2nc(NC3CCCCC3(F)F)cc(N3CCOCC3)n2)n1` (centres unmarked) [IN11140-066-P1], the “SC100 (μM)” value is “+ (+ means >1 uM)”.
On to `CC(=O)c1cc(NC2CCCCC2(F)F)nc(-c2nc(C)cs2)n1` (centres unmarked) [IN11140-081-P1, 1-(6-((2,2-difluorocyclohexyl)amino)-2-(4-methylthiazol-2-yl)pyrimidin-4-yl) ethan-1-one], for which the “SC100 (μM)” value is on record as “+ (+ means >1 uM)”.
Take `Cc1csc(-c2nc(NC3CCCCC3(F)F)cc(C(C)O)n2)n1` (centres unmarked) [IN11140-083-P1, 1-(6-((2,2-difluorocyclohexyl)amino)-2-(4-methylthiazol-2-yl)pyrimidin-4-yl) ethan-1-ol]: the “SC100 (μM)” value is “+ (+ means >1 uM)”.
As to `Cc1csc(-c2nc(N[C@@H]3CCCC[C@H]3F)cc(N3CCOCC3)n2)n1` [IN11140-086-P1], the “SC100 (μM)” value is listed as “+ (+ means >1 uM)”.
For `Cc1csc(-c2nc(NC3CCCCC3(F)F)cc(C(C)F)n2)n1` (centres unmarked) [IN11140-089-P1, N-(2,2-difluorocyclohexyl)-6-(1-fluoroethyl)-2-(4-methylthiazol-2-yl)pyrimidin-4-amine], the “SC100 (μM)” value is listed as “+ (+ means >1 uM)”.
Turning to `COc1cc(NC2CCCCC2OC)nc(-c2nc(C)cs2)n1` (centres unmarked) [IN11140-090-P1, 6-methoxy-N-(2-methoxycyclohexyl)-2-(4-methylthiazol-2-yl)pyrimidin-4-amine], the “SC100 (μM)” value is “+ (+ means >1 uM)”.
Take `COc1cc(N[C@@H]2CCCC[C@H]2F)nc(-c2nc(C)cs2)n1` [IN11140-096-P1]: the “SC100 (μM)” value is “+ (+ means >1 uM)”.
For `COC(C)c1cc(NC2CCCCC2(F)F)nc(-c2nc(C)cs2)n1` (centres unmarked) [IN11140-099-P1, N-(2,2-difluorocyclohexyl)-6-(1-methoxyethyl)-2-(4-methylthiazol-2-yl)pyrimidin-4-amine], the “SC100 (μM)” value was “+ (+ means >1 uM)”.
On to `COc1cc(NC2CCC(F)(F)CC2)nc(-c2nc(C)cs2)c1` [IN11146-013-P1], for which the “SC100 (μM)” value is on record as “++ (++ means 200 nM-1000 nM)”.
Under `Cc1cc(C)n(-c2nc(N[C@@H]3CCCC[C@H]3F)cc(N3CCOCC3)n2)n1` [IN11146-016-P1] stands “+ (+ means >1 uM)”; under `Cc1csc(-c2nc(NC3CCC(F)(F)CC3)cc(OC3CC3)n2)n1` [IN11146-033-P1, 6-cyclopropoxy-N-(4,4-difluorocyclohexyl)-2-(4-methylthiazol-2-yl)pyrimidin-4-amine], “+ (+ means >1 uM)”; under `Cc1cc(C)n(-c2cc(CO)cc(NC3CC(F)(F)C3)n2)n1` [IN11146-039-P1, (2-((3,3-difluorocyclobutyl)amino)-6-(3,5-dimethyl-1H-pyrazol-1-yl)pyridin-4-yl) methanol], “+ (+ means >1 uM)”.
For the compound `Cc1ccn(-c2cc(OC3CCS(=O)(=O)CC3)cc(NC3CCC(F)(F)CC3)n2)n1` [IN11146-089-P1, 4-((2-((4,4-difluorocyclohexyl)amino)-6-(3-methyl-1H-pyrazol-1-yl)pyridin-4-yl)oxy)tetrahydro-2H-thiopyran 1,1-dioxide], the “SC100 (μM)” value is “++ (++ means 200 nM-1000 nM)”.
Turning to `CSc1cc(NC2CCC(F)(F)CC2)nc(-c2nc(C)cs2)c1` [IN11147-026-P1, N-(4,4-difluorocyclohexyl)-6-(4-methylthiazol-2-yl)-4-(methylthio)pyridin-2-amine], the “SC100 (μM)” value was “+++ (+++ means <200 nM)”.
As for `Cc1csc(-c2cc([S+](C)[O-])cc(NC3CCC(F)(F)CC3)n2)n1` (centres unmarked) [IN11147-031-P1, N-(4,4-difluorocyclohexyl)-4-(methylsulfinyl)-6-(4-methylthiazol-2-yl)pyridin-2-amine], the “SC100 (μM)” value was “++ (++ means 200 nM-1000 nM)”.
As for `Cc1csc(-c2cc(S(C)(=O)=O)cc(NC3CCC(F)(F)CC3)n2)n1` [IN11147-036-P1, N-(4,4-difluorocyclohexyl)-4-(methylsulfonyl)-6-(4-methylthiazol-2-yl)pyridin-2-amine], the “SC100 (μM)” value is listed as “+++ (+++ means <200 nM)”.
Under `COc1cc(NC2CCC(F)(F)CC2)nc(-c2nc(C3CC3)cs2)n1` [IN11147-054-P1, 2-(4-cyclopropylthiazol-2-yl)-N-(4,4-difluorocyclohexyl)-6-methoxypyrimidin-4-amine] stands “++ (++ means 200 nM-1000 nM)”.
Take `Cc1cc(NC2CCC(F)(F)CC2)nc(-c2nc(C3CC3)cs2)n1` [IN11147-062-P1, 2-(4-cyclopropylthiazol-2-yl)-N-(4,4-difluorocyclohexyl)-6-methylpyrimidin-4-amine]: the “SC100 (μM)” value is reported as “+ (+ means >1 uM)”.
Under `CC(O)c1cc(NC2CCC(F)(F)CC2)nc(-c2nc(C3CC3)cs2)n1` (centres unmarked) [IN11147-066-P1, 1-(2-(4-cyclopropylthiazol-2-yl)-6-((4,4-difluorocyclohexyl)amino)pyrimidin-4-yl) ethan-1-ol] stands “++ (++ means 200 nM-1000 nM)”; under `CC(=O)c1cc(NC2CCC(F)(F)CC2)nc(-c2nc(C3CC3)cs2)n1` [IN11147-071-P1, 1-(2-(4-cyclopropylthiazol-2-yl)-6-((4,4-difluorocyclohexyl)amino)pyrimidin-4-yl) ethan-1-one], “+ (+ means >1 uM)”; under `COCc1cc(NC2CCC(F)(F)CC2)nc(-c2nc(C3CC3)cs2)n1` [IN11147-077-P1, 2-(4-cyclopropylthiazol-2-yl)-N-(4,4-difluorocyclohexyl)-6-(methoxymethyl)pyrimidin-4-amine], “++ (++ means 200 nM-1000 nM)”.
